# Key:
# [1] = Particle size and polydispersity index of nanoparticle compositions (Zetasizer Nano ZS); format: physicochemical; conditions: for PDI: nanoparticle composition 50:10:38.5:1.5 mol % (Table 1A); for Size (nm): nanoparticle composition lipid:DSPC:cholesterol:PEG-DMG 50:10:38.5:1.5 mol %, mRNA encoding Luc or hEPO (Table 1A)
# Description: Nanoparticle compositions may be characterized by a variety of methods. For example, microscopy (e.g., transmission electron microscopy or scanning electron microscopy) may be used to examine the morphology and size distribution of a nanoparticle composition. Dynamic light scattering or potentiometry (e.g., potentiometric titrations) may be used to measure zeta potentials. Dynamic light scattering may also be utilized to determine particle sizes. Instruments such as the Zetasizer Nano ZS (Malvern Instruments Ltd, Malvern, Worcestershire, UK) may also be used to measure multiple characteristics of a nanoparticle composition, such as particle size, polydispersity index, and zeta potential.
# A Zetasizer Nano ZS (Malvern Instruments Ltd, Malvern, Worcestershire, UK) can be used to determine the particle size, the polydispersity index (PDI) and the zeta potential of the nanoparticle compositions in 1×PBS in determining particle size and 15 mM PBS in determining zeta potential.
# (§1) Initial studies were performed to compare the delivery efficiency of nanoparticle compositions including various compounds according to Formula (I), (IA), (II), (IIa), (IIb), (IIc), (IId) or (IIe). The cationic lipid MC3 is a current standard in the art. Accordingly, the standard MC3 formulation including about 50 mol % MC3, about 10 mol % DSPC, about 38.5 mol % cholesterol, and about 1.5 mol % PEG-DMG was used as a basis for this study. Nanoparticle compositions including DSPC as a phospholipid, cholesterol as a structural lipid, PEG-DMG as a PEG lipid, an RNA, and a compound according to Formula (I), (IA), (II), (IIa), (IIb), (IIc), (IId) or (IIe) selected from Compounds 1-159, 168-170, and 173-175 were prepared according to or via methods similar to those described in Examples 1 and 2. The ratios of the lipids were 50:10:38.5:1.5 mol % for the lipid according to Formula (I), (IA), (II), (IIa), (IIb), (IIc), (IId) or (IIe):DSPC:cholesterol:PEG-DMG. The RNA used was an mRNA encoding G5 luciferase (Luc) or G5 hEPO. Tables 1A-1B summarize the content and characteristics of the formulations. […]
# [2] = Encapsulation of RNA by the nanoparticle composition (QUANT-IT RIBOGREEN RNA assay); format: physicochemical; conditions: nanoparticle composition 50:10:38.5:1.5 mol % (Table 1A)
# Description: The efficiency of encapsulation of a therapeutic and/or prophylactic describes the amount of therapeutic and/or prophylactic that is encapsulated or otherwise associated with a nanoparticle composition after preparation, relative to the initial amount provided. The encapsulation efficiency is desirably high (e.g., close to 100%). The encapsulation efficiency may be measured, for example, by comparing the amount of therapeutic and/or prophylactic in a solution containing the nanoparticle composition before and after breaking up the nanoparticle composition with one or more organic solvents or detergents. Fluorescence may be used to measure the amount of free therapeutic and/or prophylactic (e.g., RNA) in a solution. For the nanoparticle compositions described herein, the encapsulation efficiency of a therapeutic and/or prophylactic may be at least 50%, for example 50%, 55%, 60%, 65%, 70%, 75%, 80%, 85%, 90%, 91%, 92%, 93%, 94%, 95%, 96%, 97%, 98%, 99%, or 100%. In some embodiments, the encapsulation efficiency may be at least 80%. In certain embodiments, the encapsulation efficiency may be at least 90%.
# For nanoparticle compositions including an RNA, a QUANT-IT™ RIBOGREEN® RNA assay (Invitrogen Corporation Carlsbad, CA) can be used to evaluate the encapsulation of an RNA by the nanoparticle composition. The samples are diluted to a concentration of approximately […] in a TE buffer solution (10 mM Tris-HCl, 1 mM EDTA, pH 7.5). 50 μL of the diluted samples are transferred to a polystyrene 96 well plate and either 50 μL of TE buffer or 50 μL of a 2% Triton X-100 solution is added to the wells. The plate is incubated at a temperature of 37° C. for 15 minutes. The RIBOGREEN® reagent is diluted 1:100 in TE buffer, and 100 μL of this solution is added to each well. The fluorescence intensity can be measured using a fluorescence plate reader (Wallac Victor 1420 Multilablel Counter; Perkin Elmer, Waltham, MA) at an excitation wavelength of, for example, about 480 nm and an emission wavelength of, for example, about 520 nm. The fluorescence values of the reagent blank are subtracted from that of each of the samples and the percentage of free RNA is determined by dividing the fluorescence intensity of the intact sample (without addition of Triton X-100) by the fluorescence value of the disrupted sample (caused by the addition of Triton X-100).
# as §1
# [3] = tested on: rats; assay: Residual lipid levels in liver and spleen of rats (UPLC-MS quantification); format: in vivo, rat; conditions: rats, 2 mpk, 48 h; assuming 300 g rat and 15 g liver
# Method: At 48 h liver tissue was harvested for lipid quantification. To pre-weighed tissues, Milli-Q water was added (900 μL water per 100 mg tissue). Tissues were homogenized using an Omni probe homogenizer until uniform. 50 μL of samples and matrix calibration standards were aliquoted into a 96-well plate. 50 μL of blank matrix for matrix blanks and control blanks were aliquoted. 400 μL IS spiking solution were manually added to all samples except matrix blanks. 400 μL of 50:50 ACN:IPA were manually added to matrix blanks. The plate was covered and the samples vortexed and centrifuged for 5 minutes at >3000 rpm. 200 μL of the samples were transferred into a clean 96-well plate for analysis. Samples were analyzed on a Waters Acquity UPLC using a Higgins Analytical Clipeus C8 column ([…], 30×2.1 mm) and a gradient of either 70-95% or 60-95% (Mobile Phase A: 5 mM ammonium formate in 50:50:1 H2O:MeOH:formic acid; Mobile Phase B: 5 mM ammonium formate in 100:1 MeOH:formic acid) over 1.3 min at 1.2 mL/min (column temperature 55° C.). Detection was based on electrospray ionization (ESI) in positive mode using a Sciex API5500 Mass Spectrometer.
# The expression of hEPO in rats intravenously administered a nanoparticle composition at a dose of 0.2 mpk or 2.0 mpk was measured at 6 hours. Table 16 summarize the ratio of hEPO expression levels using various nanoparticle compositions as compared to the hEPO expression level using MC3 formulation and the lipid levels in the liver measured 48 hours after administration, as described above. Tables 17 and 18 summarize the lipid levels in the liver and spleen measured 48 hours after administration of Compounds 28, 33, 53, and 54. Liver and spleen levels represent the average values calculated for 3 rats in each group. As is shown in Tables 17 and 18, less than 10% of Compounds 28, 33, 53, and 54 remained in the liver after 48 hours, while greater than 60% of MC3 remained.
# Table 19 summarizes the hEPO expression, IP-10 induction, liver and spleen levels, and alanine aminotransferase (ALT) and aspartate aminotransferase (AST) measured upon intravenous administration of formulations including Compounds 48, 49, and 50 to rat at 0.2 and 2 mpk and hEPO mRNA. hEPO concentrations were measured 6 hours after administration, while cytokine induction and liver and spleen levels were measured 48 hours after administration. hEPO and IP-10 concentrations are presented in pg/ml, while liver levels are provided in ng/g. ALT and AST levels are presented in international units.
# The expression of hEPO induced by intravenous administration to rats of nanoparticle compositions at various doses was measured at 2, 4, 6, 8, 24, and 48 hour time points. FIGS. 3-6 respectively summarize the hEPO expression measured upon intravenous administration of formulations including Compounds 26, 18, 25, and MC3 to rat at various doses. The lipid levels of Compound 26 in the liver after 48 hours were about 19%.
# The expression of hEPO and lipid levels in the liver and spleen in rats intravenously administered a nanoparticle composition at a dose of 0.2 mpk was measured at various timepoints. Compounds 18 and 25 were selected for comparison with MC3. Lipids were formulated according to the standard MC3 formulation described above. Rats were administered intravenously a single 0.2 mpk dose and expression monitored at 0.25, 0.5, 1, 2, 4, 8, 24, and 48 hours after administration.
# [4] = tested on: mice; assay: Luc expression (total flux) after intramuscular administration; format: in vivo; conditions: 6 hours after intramuscular administration, Luc mRNA and H10 mRNA
# Method: The numbers 1-7 in this figure correspond to MC3, Compounds 168-170, and 173-175 respectively.
# In order to monitor how effectively various nanoparticle compositions deliver therapeutic and/or prophylactics to targeted cells, different nanoparticle compositions including a particular therapeutic and/or prophylactic (for example, a modified or naturally occurring RNA such as an mRNA) are prepared and administered to rodent populations. Mice are intravenously, intramuscularly, intraarterially, or intratumorally administered a single dose including a nanoparticle composition with a formulation such as those provided in Example 3. In some instances, mice may be made to inhale doses. Dose sizes may range from 0.001 mg/kg to 10 mg/kg, where 10 mg/kg describes a dose including 10 mg of a therapeutic and/or prophylactic in a nanoparticle composition for each 1 kg of body mass of the mouse. A control composition including PBS may also be employed.
# The total flux (measured by area under the curve, AUC) induced by administration of a formulation including a given lipid relative to that induced by administration of a formulation including MC3 was also measured for several lipids.
# Sample formulations including both modified luciferase (Luc) mRNA and H10 mRNA were prepared and administered intramuscularly and the resulting expression and immunogenicity were evaluated simultaneously. Formulations including compounds according to Formula (I), (IA), (II), (IIa), (IIb), (IIc), (IId) or (IIe) were prepared and administered at doses of 0.001 and 0.01 mpk (e.g., doses of 0.0005 mpk of a formulation including Luc mRNA and a formulation including H10 mRNA or doses of 0.005 mpk of a formulation including Luc mRNA and a formulation including H10 mRNA).
# Sample formulations including modified luciferase (Luc) mRNA prepared and administered intramuscularly and the resulting expression and immunogenicity were evaluated simultaneously. Formulations including compounds according to Formula (I), (IA), (II), (IIa), (IIb), (IIc), (IId) or (IIe) were prepared and administered at dose of […] 0.01 mpk.
# The fluxes measured upon intravenous and intramuscular administration are compared in Table 6. Fluxes are presented as fold increase over that measured for MC3 formulations.
SMILES,PDI [1],Size (nm) [1],EE (%) [2],"% Lipid Remaining in liver, 48 h* 2 mpk [3]",Total flux (p/s) 0.001 mpk Dose [4],Total flux (p/s) 0.01 mpk Dose [4]
"CCCCCCCCCOC(=O)CCCCCCCN(CCCCCCCC(=O)OC(CCCCCCCC)CCCCCCCC)CCCN/C(=N/C#N)N(C)C [Compound 168, Heptadecan-9-yl (Z)-8-((3-(2-cyano-3,3-dimethylguanidino)propyl)(8-(nonyloxy)-8-oxooctyl)amino)octanoate]",0.1,80.7 nm,94.35%,,,
"CCCCCCCCC(CCCCCCCC)OC(=O)CCCCCCCN(CCO)CCCC(=O)OC(CCCCC)CCCCCCCC (stereo not drawn) [Compound 71, Heptadecan-9-yl 8-((2-hydroxyethyl)(4-oxo-4-(tetradecan-6-yloxy)butyl)amino)octanoate]",0.11,60.1 nm,96.1%,,,
"CCCCCCCCC(CC)OC(=O)CCCCCCCN(CCO)CCCCCCCC(=O)OC(CCCCCCCC)CCCCCCCC (stereo not drawn) [Compound 49, heptadecan-9-yl 8-((2-hydroxyethyl)(8-oxo-8-(undecan-3-yloxy)octyl)amino)octanoate]",0.110,73.1 nm,,12.6%,,
"CCCCCCCCC(CCC)OC(=O)CCCCCCCN(CCO)CCCCCCCC(=O)OC(CCCCCCCC)CCCCCCCC (stereo not drawn) [Compound 50, dodecan-4-yl 8-((8-(heptadecan-9-yloxy)-8-oxooctyl)(2-hydroxyethyl)amino)octanoate]",,,,15.9%,6.56E+05 p/s,1.13E+07 p/s
"CCCCCCCCC(C)OC(=O)CCCCCCCN(CCO)CCCCCCCC(=O)OC(CCCCCCCC)CCCCCCCC (stereo not drawn) [Compound 48, decan-2-yl 8-((8-(heptadecan-9-yloxy)-8-oxooctyl)(2-hydroxyethyl)amino)octanoate]",,,,7.22%,4.69E+05 p/s,8.78E+06 p/s
"CCCCCCCCCOC(=O)CCCN(CCO)CCCCCCCC(=O)OC(CCCCCCCC)CCCCCCCC [Compound 26, Heptadecan-9-yl 8-((2-hydroxyethyl)(4-(nonyloxy)-4-oxobutyl)amino)octanoate]",,,,20%,3.90E+06 p/s,6.13E+07 p/s

# Reference: patent US12404232B2, “Compounds and compositions for intracellular delivery of therapeutic agents” (ModernaTX, Inc., priority 2015, dated 2025)
